Laboratory results taken from publication PMC7822874, “Chemoprotective antimalarials identified through quantitative high-throughput screening of Plasmodium blood and liver stage parasites” (Scientific Reports, 2021).

Experiments:
in vitro [1] = conditions: human, n = 1
[2] = tested on: Plasmodium falciparum Dd2 asexual blood stage parasites; test: microbe, parasite or virus in culture; set-up: species or system Plasmodium falciparum Dd2 in human erythrocytes; single determination (one 11-point concentration-response curve); conditions: Plasmodium falciparum, DD2, Erythrocyte, 72 h; read-out: AC50
in vitro [3] = conditions: human
[4] = HepG2-A16-CD81EGFP cells, uninfected

SMILES	CC50 at 48 h (in vitro [1]; HepG2 cells) [µM]	AC50 [2] [µM]	also measured
Cc1c(NN=C(C#N)C(=O)c2ccccc2)c(=O)n(-c2ccccc2)n1C [MLS000567622-01]	12.2	6.68	–
O=S(=O)(Nc1cc2nc3ccccc3nc2n1Cc1ccccc1)c1ccc(Cl)cc1 [MLS002583111-01]	19.3	1.19	viability at 66 h (in vitro [3]; [4]): 103%
COc1ccccc1N1CCN(C[C@@H]2C=C(C)[C@H](Cc3nnc(-c4cncn4C)o3)C[C@H]2C(C)C)CC1 [NCGC00392622-01]	24.3	10.6	–
CN(C)CCCn1cnc2c(c1=N)C(c1ccccc1)c1ccc3ccccc3c1O2 (stereo not shown) [MLS001216375-01]	30.6	3.76	viability at 48 h, 1 µM (in vitro [3]; [4]): 111%; viability at 48 h, 3 µM (in vitro [3]; [4]): 110%
CC1CCN(S(=O)(=O)c2ccc3c(c2)C(=NO)c2cc(S(=O)(=O)N4CCC(C)CC4)ccc2-3)CC1 [MLS000551434-01]	–	1.68	CC50 at 48 h (in vitro [1]; hepg2): 21.7 µM
O=C(Nc1nc(-c2ccccn2)cs1)c1ccc(F)c(S(=O)(=O)N2CCOCC2)c1 [MLS002162137-01]	10.9	2.11	–
CCNC(S)=N/N=C/c1sc(N2CCCCC2)nc1-c1cccs1 [MLS000335256-01]	15.3	0.668	viability at 66 h (in vitro [3]; [4]): 103%
COc1ccccc1CNC[C@@H]1C=C(C)[C@H](Cc2nc3cccc(C)c3[nH]2)C[C@H]1C(C)C [NCGC00392078-01]	44.4	9.68	–
O=C1NC2(CCCN(Cc3ccccn3)C2)COc2ccccc21 (stereo not shown) [NCGC00477540-01]	–	4.85	CC50 at 48 h (in vitro [1]; hepg2): 3.14 µM
Nc1nc(-c2ccccn2)nc(N)c1Cc1ccccc1F [MLS000691905-01]	27.3	13.3	–
c1ccc(-c2cccc(-c3ccccn3)n2)nc1 [MLS000048666-01]	–	–	viability at 66 h (in vitro [3]): 17.7%; CC50 at 48 h (in vitro [1]; hepg2): 15.3 µM
CC(C)OCc1cc(CN2CCN(c3cccc(C(F)(F)F)c3)CC2)c(O)c2ncccc12 [NCGC00114970-01]	10.9	6.68	–
c1ccc(Oc2nc(-c3ccccn3)nc3ccccc23)cc1 [MLS000769533-01]	9.68	7.5	–
COc1cnc(-c2ccccn2)nc1N(C)c1ccccc1 [MLS001166302-01]	13.7	5.96	–
CCCCC(=O)NC(c1ccc(C(C)C)cc1)c1ccc2cccnc2c1O (stereo not shown) [MLS001204647-01]	15.3	7.5	–
CCCOC(=O)c1[nH]c2c(c1C)C(=O)CC(c1cc(OC)c(OC)c(OC)c1)C2 (stereo not shown) [MLS000116504-01]	21.7	6.68	–
Cc1[nH]n(-c2ccccc2)c(=O)c1/C=N/Nc1nncc(-c2ccccc2)n1 [MLS000579075-01]	13.7	4.22	–
Fc1ccc(Nc2nc3nonc3nc2Nc2cccc(C(F)(F)F)c2)cc1 [NCGC00117664-01]	4.32	1.68	–
Oc1c(C(Nc2ccccn2)c2ccccc2F)ccc2cccnc12 (stereo not shown) [NCGC00135751-01]	27.3	9.44	–
Cc1cc(Nc2sc(C(=O)c3ccc(F)cc3)c(N)c2C(=O)Nc2ccc(F)cc2)ccc1Cl [NCGC00138324-01]	2.73	0.75	–
Oc1cc(Nc2ccc(N3CCCCC3)cc2)cc2cccnc12 [NCGC00183804-01]	17.2	0.841	viability at 48 h, 1 µM (in vitro [3]; [4]): 105%; viability at 48 h, 3 µM (in vitro [3]; [4]): 94%
COc1cnc(-c2ccccn2)nc1Sc1ccc(Cl)cc1 [MLS000325700-01]	24.3	5.96	–
CCOC(=O)c1ccc(Nc2nc3nonc3nc2Nc2cccc(C)c2C)cc1 [NCGC00117662-01]	10.9	8.41	–
c1ccc(-c2nc(NCc3ccco3)c3ccccc3n2)nc1 [MLS000040057-01]	27.3	5.96	–
C[n+]1c2ccccc2nc2ccc(NCCO)cc21.[O-][Cl+3]([O-])([O-])[O-]	–	1.19	CC50 at 48 h (in vitro [1]; hepg2): 13.7 µM
COc1ccccc1Nc1c2c(nc3ccc(NC(=O)/C=C/c4cccc(OC)c4OC)cc13)CCCC2 [NCGC00104013-01]	30.6	5.96	–
CN(C)CC(O)COc1ccc(C(C)(C)c2ccc(OCC(O)CN(C)C)cc2)cc1 (stereo not shown) [MLS001073934-01]	21.7	8.41	–

SMILES	CC50 at 48 h (in vitro [1]; HepG2 cells) [µM]	AC50 [2] [µM]	also measured
Cc1ccc(Nc2nc3nonc3nc2Nc2cccc(C(F)(F)F)c2)cc1Cl [NCGC00117632-01]	4.32	2.11	–
O=C(/C(=C/c1ccc(Cl)cc1)c1nc2ccccc2[nH]1)c1cccs1 [MLS000565128-01]	24.3	2.11	–
COc1cnc(-c2ccccn2)nc1NC(C)C [MLS000692222-01]	15.3	5.31	–
CCN(CC)[S+](=O)([O-])c1ccc(NC(=O)CCc2c(C)nc3cc(-c4ccc(Cl)cc4)nn3c2C)cc1 [NCGC00110055-01]	27.3	4.73	–
CCCC(=O)NC(c1ccccc1)c1ccc2cccnc2c1O (stereo not shown) [MLS001204078-01]	12.2	6.68	–
COc1ccc(C2C=C(c3ccc(F)cc3)Nc3nc(-c4ccc(Cl)cc4)nn32)cc1 (stereo not shown) [NCGC00100513-01]	27.3	0.75	–
COc1ccc(/C=N/Nc2cc(C)nc(-n3nc(C)cc3C)n2)c(OC)c1 [MLS000589396-01]	24.3	5.31	–
Nc1nc(-c2ccccn2)nc(N)c1Cc1ccc(Cl)cc1Cl [MLS000691892-01]	13.7	7.5	–
CCOCc1cc(CN2CCN(c3ccccc3OC)CC2)c(O)c2ncccc12 [NCGC00114940-01]	9.68	5.96	–
O=S(=O)(c1ccc(Cl)cc1)N1CCN(Cc2ccc(O)c3ncccc23)CC1 [MLS000774708-01]	10.9	13.3	–
c1ccc(CCNc2nc(-c3ccccn3)cs2)cc1 [MLS000708031-01]	21.7	7.5	–
CCOC(=O)c1cnc(-n2nc(C)cc2C)nc1NNc1nc(-c2ccccc2)cc(-c2ccccc2)n1 [MLS000580862-01]	19.3	2.11	–
COc1ccc2[nH]c(C[C@@H]3C[C@@H](C(C)C)[C@H](CNCc4ccccn4)C=C3C)nc2c1 [NCGC00391900-01]	7.03	0.769	–
O=C1C=CC(Br)=CC1=CNNC(=O)c1ccncc1 [MLS000778139-01]	12.2	9.44	–
O=C(Nc1cc(C(F)(F)F)cc(C(F)(F)F)c1)Nc1cnn(-c2ccc([N+](=O)[O-])cc2)c1C(F)(F)F [MLS000851511-01]	10.9	6.68	–
O=C(Oc1c(CN2CCOCC2)cc(Cl)c2cccnc12)c1ccccc1Br [MLS000770987-01]	19.3	7.5	–
CCCC(=O)NC(c1ccc(C(C)C)cc1)c1ccc2cccnc2c1O (stereo not shown) [MLS001211083-01]	12.2	13.3	–
CCOC(=O)c1c(C)[nH]c2c1-c1ccccc1C(=O)C2=O [MLS000701140-01]	10.9	2.37	–
c1csc(-c2ccnc(N[C@H]3CO[C@H]4[C@@H]3OC[C@@H]4NCC3CCCCC3)n2)c1 [NCGC00395181-01]	49.8	12.2	–
FC(F)(F)c1cccc(Nc2nc3nonc3nc2Nc2ccc(Cl)cc2)c1 [NCGC00100377-01]	3.85	0.75	–
N=c1ccn(CC(=O)c2ccc(-c3ccccc3)cc2)cc1 [MLS000698051-01]	24.3	0.944	–
Cc1nn(-c2ccc(C(C)C)cc2)c(C)c1[C@@H]1C=C[C@@H](NCc2ccccc2)C1 [NCGC00392636-01]	44.4	21.7	–
Cc1sc(NC(=O)c2ccco2)c(C(c2cccnc2)N2CCC(C)CC2)c1C (stereo not shown) [MLS000536186-01]	8.62	5.31	–
O=C(NNc1ccnc2cc(Cl)ccc12)C1CCCCC1 [MLS000770801-01]	12.2	7.5	–
CN(C)CCNC(=O)c1nc2nc(-c3ccccc3)c(-c3cccc(F)c3)cc2n1C [NCGC00417874-01]	31.4	19.3	–
Cc1ccc(NCC(=O)Nc2cccc(F)c2)cc1S(=O)(=O)N1CCCCCC1 [MLS001128515-01]	27.3	–	viability at 48 h, 1 µM (in vitro [3]; [4]): 93%; viability at 48 h, 3 µM (in vitro [3]; [4]): 83%
Cc1cc(O)c(-c2cc(C(=O)Nc3ccc(S(=O)(=O)N4CCOCC4)cc3)[nH]n2)cc1C [MLS000042703-01]	27.3	1.68	–
